Measured values as given in patent US11576914B2, “Drug for treating or preventing disorder caused by TGF-β signaling, and application thereof” (THE DOSHISHA, priority 2017, dated 2023).
Where “and” joins values, the source holds several entries; their conditions need not be identical. Identical values can stand only once. Entries after “also recorded” stand apart in the source; their conditions may differ.

Tests used:
[1] = system: human corneal endothelial cells; test: Cell Titer-Glo Luminescent Cell Viability Assay in the presence of AKP-001; assay type: cell-based; conditions: 24 hours
Method: Human corneal endothelial cells were peeled off with Descemet's membranes from research-purpose donor corneas, followed by culturing. For the medium, the following was used: OptiMEM-I (invitrogen, 31985-088)+8% FBS (Thermo, SH30084.03)+5 ng/mL epidermal growth factor (invitrogen, PHG0311)+20 μg/mL L-ascorbic acid 2-sesquimagnesium phosphate hydrate (SIGMA, A8960)+200 mg/L calcium chloride dihydrate (SIGMA, C7902)+0.08% chondroitin sulfate (Wako Pure Chemical Industries, Ltd., 032-14613)+50 μg/mL gentamicin (invitrogen, 15710-064)+1 μM SB431542 (WAKO, 192-16541)+10 μM SB203580 (Cayman, 13067). Culture dishes pre-coated with laminin-511E8 (Nippi, 381-07363) were used.
Cultured human corneal endothelial cells were seeded at a rate of 1×10^4 per well in a 96-well plate coated with laminin-511E8, and the cells were cultured until reaching confluence at 37° C. (5% CO2). For the medium, used was OptiMEM-I (invitrogen, 31985-088)+8% FBS (Thermo, SH30084.03)+5 ng/mL epidermal growth factor (invitrogen, PHG0311)+20 μg/mL L-ascorbic acid 2-sesquimagnesium phosphate hydrate (SIGMA, A8960)+200 mg/L calcium chloride dihydrate (SIGMA, C7902)+0.08% chondroitin sulfate (Wako Pure Chemical Industries, Ltd., 032-14613)+50 μg/mL gentamicin (invitrogen, 15710-064)+1 μM SB431542 (WAKO, 192-16541)+10 μM SB203580 (Cayman, 13067).
Upon reaching confluence, the culturing was further conducted for one more week with OptiMEM-I (invitrogen, 31985-088)+8% FBS (Thermo, SH30084.03)+20 μg/mL+200 mg/L calcium chloride dihydrate (SIGMA, C7902)+0.08% chondroitin sulfate (Wako Pure Chemical Industries, Ltd., 032-14613)+50 μg/mL gentamicin (invitrogen, 15710-064). […]
The medium was discarded to 50 μl per well, and Cell Titer-Glo Luminescent Cell Viability Assay solution (Promega, G7572) was added to the 50 μl/well to reach 1:1 with the medium. […] After standing, 50 μl was transferred to an Assay plate (Corning, 3912, Assay plate well, white polystyrene), and the […] was measured using GloMax-Multi Detection System (Promega, E7051).

rabbits = test: Eye irritation testing (AKP-001 instillation); assay type: in vivo, rabbit
Method: Rabbits that met the above criteria were used in the testing. The testing was carried out using a total of 4 rabbits. Fifty μl of 0.1 mM AKP-001 was instilled into the right eyes of the rabbits, and the eyes were maintained in a closed state for 30 seconds. The left eyes were instilled with a vehicle in the same manner. This operation was performed every 30 minutes and 10 times in total.
The anterior eye part was observed before and after the instillation using a slit lamp microscope (SL-D7, Topcon). The anterior eye part was stained with fluorescein sodium test paper (Showa Yakuhin Kako Co., Ltd.) and observed with a slit lamp microscope with regard to the presence or absence of corneal epithelial disorder. Further, the corneal thickness, corneal shape, and corneal volume thereof were analyzed using Pentacam® HR (OCULUS). The corneal endothelium was observed using a scanning slit-type, contact-type corneal endothelium specular microscope (Konan Medical, Inc.). Further, the central corneal thickness was measured using an ultrasonic pachymeter (SP-100, Tomey Corporation), and the intraocular pressure was measured using Tonovet® (ME Technica).
Corneal transparency was evaluated by the following Grading.
Opacity: degree of turbidity (the most turbid area is read.)

[2] = prior to and after 10 instillations

O=C(Cc1c(F)cccc1Cl)Nc1onc(-c2ccc(F)cc2)c1-c1ccncn1 [AKP-001, 5-[(2-chloro-6-fluorophenyl)acetylamino]-3-(4-fluorophenyl)-4-(4-pyrimidinyl)isoxazole]
cell damage (cell viability) ([1]; 0.1 μM, 0.3 μM, 1 μM, 3 μM or 10 μM): no cell damage was observed
number of the cells (cell viability) ([1]; 30 μM and 100 μM): significantly reduced the number of the cells
concentrations at which less toxic to the cells [1]: less than 30 μM
corneal thickness (Pentacam HR) (rabbits; 0.1 mM instilled 10 times): No obvious changes
epithelial disorder of the keratoconjunctiva, fluorescein staining (rabbits; 0.1 mM instilled 10 times): no epithelial disorder of the stained keratoconjunctiva was observed
hyperemia (rabbits; 0.1 mM instilled 10 times): no hyperemia was observed
inflammation of the anterior eye part (rabbits; 0.1 mM instilled 10 times): no inflammation or the like was observed; also recorded: no inflammation of the anterior eye part was observed
shape of the cornea (Scheimpflug images) (rabbits; 0.1 mM instilled 10 times): No obvious change
corneal endothelium, specular microscope images (rabbits; 10 instillations): No obvious changes
cornea, slit lamp microscope (rabbits; 50 μl of 0.1 mM instilled 10 times every 30 minutes): transparent
corneal transparency score (rabbits; before and after 10 instillations, all the corneas): zero and 0
central corneal thickness (ultrasonic pachymeter) (rabbits; [2]): No significant changes
corneal volume (10 mm diameter, Pentacam HR) (rabbits; [2]): No significant changes
intraocular pressure (Tonovet) (rabbits; [2]): No significant changes
